Assay results as given in patent US8329919B2, “Salt hydrates” (Novartis AG, priority 2002, dated 2012).
Values joined by “and” are separate entries in the source; they are usually repeats but may differ in a detail not shown here. Identical values can stand only once.

Test: Thermogravimetry: weight loss, i.e. water loss, as a function of temperature (thermobalance TGS-2)
Format: physicochemical
Details: heating rate 10 K·min^−1, water-free N2 atmosphere
Description: Using thermogravimetry, in a water-free N2 atmosphere, the weight loss, i.e. the water loss for the tetrahydrate of the calcium salt of valsartan A1,Ca as a function of temperature, was measured at a heating rate of 10 K·min^−1. […]
Using thermogravimetry, in a water-free N2 atmosphere, the weight loss, i.e. the water loss for the trihydrate of the calcium salt of valsartan in the polymorphic form B1,Ca as a function of temperature, was measured at a heating rate of 10 K·min^−1.
(§1) Using thermogravimetry, in a water-free N2 atmosphere, the weight loss, i.e. the water loss for the trihydrate B2,Ca as a function of temperature, was measured at a heating rate of 10 K·min^−1. The results for the polymorph B2,Ca of the trihydrate of the calcium salt of valsartan are illustrated in table 4.
as §1, with “B3,Ca” for “B2,Ca”, “polymorphic form B3,Ca” for “polymorph B2,Ca”, “5.” for “4.”
Using thermogravimetry, in a water-free N2 atmosphere, the weight loss, i.e. the water loss for the di-(calcium salt of valsartan) pentahydrate D1,Ca as a function of temperature, was measured at a heating rate of 10 K·min^−1.
The instrument used for the calorimetric data is throughout a DSC Pyris 1 (Differential Scanning calorimeter) obtained from Perkin-Elmer Corp., Norwalk, Conn. USA. The measurements are performed with samples enclosed in a sealed gold specimen container with an internal free volume of ca. 22 microliters, with a sample weight of 2 to 4 mg and with a heating rate of Tr=10K·min^−1. […] The instrument used was a TGS-2 (Perkin-Elmer Corp., Norwalk, Conn. USA) and the measurement was performed in a water free atmosphere. The heating rate selected was 10 K·min^−1. The weight loss is illustrated in table 7.
The heating rate selected was 10K·min^−1.
Using thermogravimetry, in a water-free N2 atmosphere, the weight loss, i.e. the water loss for the tetrahydrate as a function of temperature, was measured at a heating rate of 10 K·min^−1. The results for the calcium salt of valsartan tetrahydrate A0,Ca are listed in the following: […]
Using thermogravimetry, in a water-free N2 atmosphere, the weight loss, i.e. the water loss for the tetrahydrate of the calcium salt of valsartan as a function of temperature, was measured at a heating rate of 10 K·min^−1.

Row | weight loss or water loss in % (temperature 25 °C) | weight loss or water loss in % (temperature 50 °C) | weight loss or water loss in % (temperature 75 °C) | weight loss or water loss in % (temperature 100 °C) | weight loss or water loss in % (temperature 125 °C) | weight loss or water loss in % (temperature 150 °C) | weight loss or water loss in % (temperature 175 °C) | weight loss or water loss in % (temperature 200 °C) | weight loss or water loss in % (temperature 225 °C) | weight loss or water loss in % (temperature 250 °C) | weight loss or water loss in % (temperature 275 °C) | Compound
1 | 0.6% | 3.0% | 5.6% | 7.1% | 7.9% | 8.3% | 8.6% | 8.6% | 8.8% | – | – | CCCCC(=O)N(Cc1ccc(-c2ccccc2-c2nnn[nH]2)cc1)[C@H](C(=O)O)C(C)C [F1,Ca, (S)—N-(1-carboxy-2-methyl-prop-1-yl)-N-pentanoyl-N-[2′-(1H-tetrazol-5-yl)-biphenyl-4-ylmethyl]-amine]
2 | 0 ± 0.3% and 0% | 0.1 ± 0.3% and 0% | 0.5 ± 0.5% and 0% | 4.9 ± 0.5% and 4.7% | 11.2 ± 0.5% and 11.1% | 12.2 ± 0.5% and 11.9% | 12.6 ± 0.5% and 12.3% | 12.7 ± 0.5% and 12.5% | 12.8 ± 0.5% and 12.6% | 12.8 ± 0.5% and 12.7% | 13.0 ± 0.5% and 13.3% | CCCCC(=O)N(Cc1ccc(-c2ccccc2-c2nnn[nH]2)cc1)[C@H](C(=O)O)C(C)C [A2,Ca, (S)—N-(1-carboxy-2-methyl-prop-1-yl)-N-pentanoyl-N-[2′-(1H-tetrazol-5-yl)-biphenyl-4-ylmethyl]-amine]
